Test results as given in US6610282B1, “Polymeric controlled release compositions” (Rohm and Haas Company, priority 1998, dated 2003).

Test: Release of 4,5-dichloro-2-octyl-3-isothiazolone from dry marine paint film in synthetic sea water
Type: physicochemical
Conditions: 14 Days in synthetic sea water; marine paint film with 5%wt active on glass slides, dried 6 days; HPLC of film extract
Protocol: The compositions of Example 1 were evaluated for the control of the release of biologically active molecules in a marine paint.
A blank paint, that is one that contained no biologically active molecules, was dosed with Samples 2-5. The amount of the samples added was such that the total amount of 4,5-dichloro-2-octyl-3-isothiazolone in the paint was 5%wt, based on the total weight of the dry paint film. A control paint was prepared by adding 4,5-dichloro-2-octyl-3-isothiazolone alone. Glass slides were painted with the treated paints as well as the control paint and allowed to dry in a hood for 6 days. The slides were then submerged in a tank of synthetic sea water. The slides were removed after 14 days and the paint film extracted. The extracts were analyzed by HPLC to determine the amount of 4,5-dichloro-2-octyl-3-isothiazolone remaining.

SMILES: CCCCCCCCn1sc(Cl)c(Cl)c1=O [Control, 4,5-dichloro-2-octyl-3-isothiazolone]
- % of 4,5-Dichloro-2-n-octyl-3-isothiazolone Released: 29.0%
